Laboratory results published in publication PMC9441068, “Novel eIF4A1 inhibitors with anti‐tumor activity in lymphoma” (Molecular Medicine, 2022).

Key:
Type in all cases: biochemical
human eIF4A1 [1] = target: T1, human eIF4A1 (Homo sapiens, UniProt P60842); assay: malachite green phosphate release (RNA-dependent ATPase) assay
human eIF4A1 [2] = target: T1, human eIF4A1; assay: malachite green phosphate release (RNA-dependent ATPase) assay; also Cy3/Cy5 RNA unwinding assay (IC50 […])
human eIF4A1 [3] = target: T1, human eIF4A1; assay: as above; remark: listed apart in the source

T1 sequence (P60842 2-406): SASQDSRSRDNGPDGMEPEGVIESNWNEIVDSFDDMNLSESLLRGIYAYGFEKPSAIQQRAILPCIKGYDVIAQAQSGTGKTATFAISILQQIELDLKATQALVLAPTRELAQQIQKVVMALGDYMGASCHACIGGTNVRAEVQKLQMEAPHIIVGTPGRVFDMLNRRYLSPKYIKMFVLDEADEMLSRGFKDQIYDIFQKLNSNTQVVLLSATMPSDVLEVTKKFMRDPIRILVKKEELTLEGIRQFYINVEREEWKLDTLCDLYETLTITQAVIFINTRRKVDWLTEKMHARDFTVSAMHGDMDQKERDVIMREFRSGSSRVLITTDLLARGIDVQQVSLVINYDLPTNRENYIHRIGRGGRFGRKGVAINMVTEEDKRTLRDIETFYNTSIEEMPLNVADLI

IC50 (human eIF4A1 [1])	SMILES	further results
3000 nM	CC(=NNC(=O)c1nnn(-c2nonc2N)c1CSc1nncn1C)c1cccc(O)c1 [RBF98]	–
–	CC(=NNC(=O)c1nnn(-c2nonc2N)c1CSc1nncn1C)c1ccccc1O [RBF197]	IC50 (human eIF4A1 [2]): 0.0552 nM
0.209 nM	CC(=NNC(=O)c1nnn(-c2nonc2N)c1CSc1nncn1C)c1ccccc1O [RBF203]	–
–	Cn1cnnc1SCc1c(C(=O)NN=Cc2ccccc2O)nnn1-c1nonc1N [RBF208]	IC50 (human eIF4A1 [3]): 0.0741 nM
